# Measurements as given in patent US20080255244A1, “CaM Kinase II Inhibitor Improves Retinoic Acid Therapy and Inhibits the Proliferation of Myeloid Leukemia Cells” (Fred Hutchinson Cancer Research Center, priority 2007, published 2008).
# Key:
# Format in all cases: cell-based, human
# [1] = tested on: activated CaMKIIγ in KCL22 cells; test: Western blot of CaMKIIγ autophosphorylation in KCL22 cells; conditions: five days ATRA
# Experimental: (§1) FIG. 9. Terminal differentiation/apoptosis of myeloid leukemia cells is associated with decreased CaMKIIγ activation. (A) Lysates from the HL60, NB4 and U937 myeloid cell lines treated with ATRA (1 μM) for the indicated period of time were subjected to Western blots. (B) Lysates from the indicated myeloid cell lines treated for five days with the indicated concentration of ATRA were subjected to Western blots. (C) Lysates from HL60 cells treated with TPA (0.1 μM) for the indicated time were subjected to Western blots. (D) Lysates from NB4 cells treated with arsenic trioxide (1 uM) for the indicated time were subjected to Western blots.
# (§2) Antibodies and Western blots. Protein extracts, immunoprecipitations and Western blots were performed as previously detailed (Si J, Collins S J. IL-3-induced enhancement of retinoic acid receptor activity is mediated through Stat5, which physically associates with retinoic acid receptors in an IL-3-dependent manner. Blood 100: 4401-9 (2002)). Antibodies against CaMKI, CaMKIIγ, CaMKIV, c-myc, Stat3, Stat5, calmodulin, as well as the phosphospecific CaMKII (T286, 287) and phosphospecific CaMKI (T177) antibodies were from Santa Cruz Biotechnology. […]
# [2] = tested on: C/EBPε expression in HL60; test: Western blot of C/EBPε expression in HL60 cells; conditions: ATRA 1 uM
# Experimental: FIG. 6. Retinoic acid induces changes in the association of CaMKIIγ with the C/EBPε promoter RARE. […] (B) The human C/EBPε 5′ region indicating the location of the ChIP PCR primers. (C) ChIP assays. HL60 cell chromatin from cells treated with ATRA (1 uM) for the indicated time was immunoprecipitated with the indicated antibodies, the DNA isolated and subjected to PCR utilizing the indicated C/EBPε promoter primer pairs.
# Protein extracts, Western blotting and co-immunoprecipitations. Westerns and co-immunoprecipitations were performed as previously detailed (Si, J., and Collins, S. J., Blood 100:4401-4409 (2002)).
# [3] = tested on: activated CaMKIIγ in KG1 cells; test: Western blot of CaMKIIγ autophosphorylation in KG1 cells; conditions: five days ATRA
# Experimental: as §1, §2
# [4] = tested on: Kasumi cells; test: Differentiation of Kasumi cells; conditions: preliminary studies; not shown
# Text: (§3) Pharmacological CaMK inhibitors trigger myeloid leukemia cell differentiation. Particularly compelling evidence for the physiological importance of the CaMKII—mediated regulation of RAR activity is our experimental observation that KN-62, a pharmacological inhibitor of the CaMKs, enhances both RAR transcriptional activity (FIG. 1B) and the differentiation of certain myeloid leukemia cell lines (FIG. 7). Acute myelogenous leukemia (AML) is a heterogenous disease, and successful therapy with RA has been generally confined to those leukemias harboring RARα chromosome translocations.
# [5] = tested on: HL-60 cells; test: Differentiation of HL-60 cells (Wright Giemsa morphology, Cd11b FACS); conditions: single agent; five days; KN62 5 μM
# Experimental: FIG. 7. KN-62 regulates the differentiation of myeloid leukemia cell lines. (A) Wright Giemsa-stained HL-60 cells either (a) uninduced or treated for five days with (b) KN62 or (c) ATRA. (d) CD11b expression in HL-60 cells after five days exposure to KN62 (5 μM) or ATRA (1 μM). (B) Wright-Giemsa stained NB4 cells treated for five days with KN-62 (5 μM) and ATRA as indicated. […] (C) Cd11b expression of NB4 cells treated for five days with the indicated concentrations of RA and/or KN-62. (D) Western blots with the indicated antibodies were performed on HL60 cell lysates following incubation with KN62 for the indicated period of time. (E) Western blots of NB4 cell lysates following a five day incubation with the indicated compounds.
# Antibodies and chemical reagents. Antibodies against RARα, βtubulin, CaMKIIα, CaMKIIβ, CaMKIIγ, CaMKIIδ, CaMKIα, as well as phosphospecific antibodies against CaMKII were all purchased from Santa Cruz Biotechnology. Antibodies against N-CoR and SMRT were from Upstate Biotechnology. CaMKIV antibody was from BD Biosciences. Anti-FLAG antibody was from Sigma while anti-HA antibody from Novachem. Quantitation of CD11b surface antigen expression was performed utilizing the fluorescent-activated cell sorter (FACS) with PE-conjugated anti-CD11b antibody from Becton Dickinson. KN-62, KN-93 and ionomycin were obtained from Calbiochem. […]
# [6] = tested on: NB4 subclones that are unresponsive to ATRA; test: Differentiation of ATRA-unresponsive NB4 subclones
# Text: as §3
# [7] = tested on: KCL22 cells; test: KCL22 proliferation in liquid suspension culture
# Experimental: FIG. 11. […] (A) K562 cells were seeded in liquid suspension culture at 5×10^4 cells/ml in the presence or absence of the indicated concentration of compounds, and cell counts were obtained at the indicated time. (B) The indicated myeloid leukemia cell lines were seeded in liquid suspension culture at 5×10^4 cells/ml in the presence or absence of KN93, and cell counts obtained at the indicated time. (C) K562 cells were electroporated with the LXSN expression vector harboring the kinase dead, Lys^43 mutated, truncated CaMKII construct (kdCaMKII) as well as with the control (empty) LXSN vector. The electroporated cells were diluted into 96 well plates in liquid suspension culture in the presence of G418 (1 mg/ml). Following eight days of culture the total number of discrete, actively proliferating G418 resistant colonies within individual wells was determined.
# Cell lines. All leukemia cell lines are cultured at 37° in RPMI supplemented with 5% heat-inactivated fetal calf serum.
compound,measurement,setting,value
"CC1=C(/C=C/C(C)=C/C=C/C(C)=C/C(=O)O)C(C)(C)CCC1 [ATRA, All-trans retinoic acid]",activated CaMKIIγ level,[1],did not exhibit any decrease
same,C/EBPε expression,[2],enhanced
same,activated CaMKIIγ level,[3],did not exhibit any decrease
CN([C@@H](Cc1ccc(OS(=O)(=O)c2cccc3cnccc23)cc1)C(=O)N1CCN(c2ccccc2)CC1)S(=O)(=O)c1cccc2cnccc12 [KN-62],differentiation of Kasumi,[4],does not induce
same,HL-60 differentiation (morphologic differentiation and Cd11b expression),[5],potent inducer
same,KN62-mediated differentiation of ATRA-unresponsive NB4 subclones,[6],do not observe any
COc1ccc(S(=O)(=O)N(CCO)c2ccccc2CN(C)C/C=C/c2ccc(Cl)cc2)cc1 [KN-93],cell proliferation,[7],inhibition
same,cell viability or morphologic differentiation,[7],without any significant effect
